# Reference: patent US10987357B2, “Aerosolized fluoroquinolones and uses thereof” (Horizon Orphan, LLC, priority 2005, dated 2021)
# Read-outs that look alike come from different tables or passages of the source.
# B1: reduced rhTrx: stable reduced form of recombinant human thioredoxin (protein, UniProt P10599 2-105, looked up)
# Thioredoxin: VKQIESKTAFQEALDAAGDKLVVVDFSATWCGPCKMIKPFFHSLSEKYSNVIFLEVDVDDCQDVASECEVKCMPTFQFFKKGQKVGEFSGANKEKLEATINELV
# modifications: reduced form
# Columns and labels:
# elastase = conditions: cited from earlier work
# physchem = conditions: for Initial Solution pH / Initial Solution Appearance: 10 mg/mL in sterile water; for Initial Solution Appearance: room temperature; for After pH Adjustment Appearance / After pH Adjustment pH / pH of final solution: 10 mg/mL; for After pH Adjustment Appearance / After pH Adjustment pH: titrated with 1N HCl; for solubility at 10 min: aqueous buffer, thermodynamic from solid; for solubility on titration with 1N HCl: pH 1.5
# Method: A 2 to 20 mg sample of each antibiotic was weighed into sterile plastic tubes and brought up with a volume of sterile water to make a 10 mg/mL solution or suspension of the antibiotic. Samples were incubated for approximately 10 minutes at room temperature with occasional mixing, prior to further handling.
# The insoluble solutions were titrated with 1N HCl to the point of visible solubility, and the pH of the solubilized solution determined.
# After the pH adjustment, and following a further 10 minute incubation period with occasional mixing, the final appearance of the solutions was determined, just prior to the aerosol tolerability and taste test.
# [1] = system: Streptococcus pneumonia (Sp); conditions: Table 6; cited from earlier work
# [2] = system: methicillin resistant Staphylococcus aureus (MRSA); conditions: cited from earlier work; for MRSA MIC90: Table 6
# [3] = Rat pharmacokinetic model (IV vs microspray aerosol, intratracheal); format: in vivo, rats; conditions: for AUC: epithelial lining fluid (ELF)
# Method: […] Blood samples are taken at various times over 3 hours to determine the plasma pharmacokinetic parameters. […] The plasma and tissue concentrations are determined by an HPLC method and the data are then fit using WinNonlin.
# MSSA = conditions: Table 6; cited from earlier work
# [4] = system: P. aeruginosa strain PAM 1723; assay: Mouse lung infection efficacy model; conditions: Pseudomonas aeruginosa, PAM1723, in Mus musculus
# Method: The inoculum is adjusted to ca. 5×10^6 CFU/ml by correlation of absorbance at 600 nm with predetermined plate counts. […] On day 5, mice are infected by an intratracheal instillation of 0.05 ml of inoculum while under isoflurane anesthesia (5% isoflurane in oxygen running at 4 L/min). […] Mice are sacrificed 1 and 4 hours after treatment, their lungs removed, homogenized and plated to determine colony counts.
# [5] = in vivo
# Method: In the second test, the tolerability and taste of a small aerosol sample from a 0.5 ml aliquot of the test formulation was determined in a single healthy human volunteer, following nebulization in a PARI eFlow nebulizer (Table 12).
# The tolerability and taste of the drug during a very brief administration period and for a period of 10 minutes post administration were monitored. Tolerability parameters were of the following types: (i) cough, cough sensation, or sneezing (ii) irritation, burning or tightness of throat, (ii) irritation or runniness in nasal passages or eyes, (iii) irritation, burning or tightness of the lungs or shortness of breadth, and (iv) dizziness, headache, nausea or other systemic effects.
# [6] = system: Pseudomonas aeruginosa (Pa); conditions: cited from earlier work; for Pa MIC90: Table 6
# Dissolution rate studies = conditions: 37° C.
# [7] = rat, inhaled or intranasal, IT, 10 mg/kg
# [8] = 1 h, read-out: DeltaLOG CPU 1 hr, route IT, dose 25 mg/kg, 1 hr post-drug administration
# [9] = 4 h, read-out: DeltaLOG CPU 4 hr, route IT, dose 25 mg/kg, 4 hr post-drug administration
# [10] = ip, 1 h, read-out: DeltaLOG CPU 1 hr, route IP, dose 25 mg/kg, 1 hr post-drug administration
# [11] = ip, 4 h, read-out: DeltaLOG CPU 4 hr, route IP, dose 25 mg/kg, 4 hr post-drug administration
# [12] = 2-10 minutes, 500 ml pH 7.4 Tris buffer, paddles 100 rpm
# [13] = 10-30 minutes, pH 7.4 Tris buffer
Molecule,Initial Solution pH (physchem),Initial Solution Appearance (physchem),After pH Adjustment Appearance (physchem),After pH Adjustment pH (physchem),solubility at 10 min (physchem) [µg/mL],pH of final solution (physchem),SP MIC90 [1] [µg/mL],MRSA MIC90 [2] [µg/mL],MSSA MIC90 (MSSA) [µg/mL],"log reduction at 25 mg/kg [4, 8]","log reduction at 25 mg/kg [4, 9]",Aerosol Tolerability and Taste [5],Pa MIC90 [6] [µg/mL],further results
"O=C(O)CCCC[C@@H](S)CCS (racemic) [DHLA, dihydrolipoic acid]",,,,,,,,,,,,,,effect on elastase activity after treatment of CF sputum (elastase): did not increase elastase activity
COc1c(N2CCNC(C)C2)c(F)cc2c(=O)c(C(=O)O)cn(C3CC3)c12 (centres unmarked) [Gatifloxacin],7.0,"white, cloudy, visible","slight yellow color,",3.0,> 10000,3.0,0.5,4,0.125,1.48,2.11,"moderate bitter unpleasant taste,",16,"F, % from Lung vs. IV ([3]; IT, 10 mg/kg): 100%; AUC [3, 7]: 54700 ng·h/mL; AUC ([3]; rat, iv, 10 mg/kg): 5320 ng·h/mL; log reduction at 25 mg/kg [4, 10]: 0.34; log reduction at 25 mg/kg [4, 11]: 0.02; cough on aerosol exposure [5]: associated with cough; rank of potency against Pa [6]: most potent"
CO/N=C1\CN(c2nc3c(cc2F)c(=O)c(C(=O)O)cn3C2CC2)CC1CN (centres unmarked) [Gemifloxacin],4.7,"colorless, transparent, no",,,> 10000,,0.06,2,0.06,3.2,2.28,"strong unpleasant bitter taste, strong",8,"rank of potency against MRSA [2]: most potent; F, % from Lung vs. IV ([3]; IT, 10 mg/kg): 86%; AUC [3, 7]: 536000 ng·h/mL; AUC ([3]; rat, iv, 8 mg/kg): 3720 ng·h/mL; half-life ([3]; rat, serum, iv, 8 mg/kg, read-out: Serum t1/2 (converted)): 1.04 h; rank of potency against Pa [6]: most potent"
CCn1cc(C(=O)O)c(=O)c2cc(F)c(N3CCNC(C)C3)c(F)c21 (centres unmarked) [Lomefloxacin],4.2,"cloudy, visible sediment","transparent, no sediment,",,> 10000,4.2,16,>32,2,,,"chemical taste, somewhat bitter,",32,
C[C@@H]1CN(c2c(F)c(F)c3c(=O)c(C(=O)O)cn(C4CC4)c3c2F)C[C@H](C)N1 [Orbifloxacin],,"white, cloudy, visible","colorless, transparent, no",1.7,> 10000,1.7,2,,2,,,"very acidic, strong bitter unpleasant",>32,cough on aerosol exposure [5]: associated with cough
C[C@@H]1CN(c2c(F)c(N)c3c(=O)c(C(=O)O)cn(C4CC4)c3c2F)C[C@H](C)N1 [Sparfloxacin],5.0,"bright yellow, turbid, visible","bright yellow, densely",1.5,,1.5,0.5,16,0.125,1.56,0.81,,32,"solubility on titration with 1N HCl (physchem): solubility was not reached by pH 1.5; log reduction at 25 mg/kg [4, 10]: 0.85; log reduction at 25 mg/kg [4, 11]: -0.09"
NC1CCN(c2nc3c(cc2F)c(=O)c(C(=O)O)cn3-c2ccc(F)cc2F)C1 (centres unmarked) [Tosufloxacin],3.5,"white, turbid, visible","white, cloudy, less turbid,",1.5,,1.5,0.5,>16,0.125,0.48,0.24,,16,"solubility on titration with 1N HCl (physchem): solubility was not reached by pH 1.5; log reduction at 25 mg/kg [4, 10]: 0; log reduction at 25 mg/kg [4, 11]: -1.33"
N[C@@H]1[C@H]2CN(c3nc4c(cc3F)c(=O)c(C(=O)O)cn4-c3ccc(F)cc3F)C[C@@H]12 [Trovafloxacin],4.2,"colorless, slightly cloudy, no",,,> 10000,4.2,0.25,8,0.06,,,,>32,
C[C@H]1COc2c(N3CCN(C)CC3)c(F)cc3c(=O)c(C(=O)O)cn1c23.O=C(O)c1cc2ccccc2c(Cc2c(O)c(C(=O)O)cc3ccccc23)c1O [levofloxacin pamoate],,,,,,,,,,,,,,"dissolution rate (Dissolution rate studies; [12]): approximately 0.146 mg/min; dissolution rate (Dissolution rate studies; 10-60 minutes, pH 7.4 Tris buffer): 0.0331 mg/min"
CCCCCCCCCCCCCCCCCC(=O)O.C[C@H]1COc2c(N3CCN(C)CC3)c(F)cc3c(=O)c(C(=O)O)cn1c23 [levofloxacin stearate],,,,,,,,,,,,,,dissolution rate (Dissolution rate studies; [12]): 0.499 mg/min; dissolution rate (Dissolution rate studies; [13]): 0.161 mg/min
C[C@H]1COc2c(N3CCN(C)CC3)c(F)cc3c(=O)c(C(=O)O)cn1c23.O=C(O)c1ccc2ccccc2c1O [levofloxacin xinafoate],,,,,,,,,,,,,,dissolution rate (Dissolution rate studies; [12]): approximately 1.24 mg/min; dissolution rate (Dissolution rate studies; [13]): 0.28 mg/min
DNase,,,,,,,,,,,,,,increase of sol elastase activity after treatment of CF sputum (elastase): 190%
B1,,,,,,,,,,,,,,increase of sol elastase activity after treatment of CF sputum (elastase): 60%
